The source of these data is PubChem BioAssay (NCI).

SMILES strings stand for the structures. Several values for one entry are separate records, joined by “and”; a condition that tells them apart may be missing. Identical values can stand only once.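 Compound exposure: 48 hours, 5 concentrations, 96-well plates. Here, GI50 denotes the concentration required for 50% inhibition of growth. TGI: total growth inhibition.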

Among the test systems are SF-539 CNS; SNB-75 CNS; RXF 393 renal; BT-549 breast; SR leukemia; NCI-H226 lung; MOLT-4 leukemia; MALME-3M melanoma; 786-0 renal; SK-MEL-2 melanoma.
What all share (test): growth of human tumour cells (NCI), 48 h

As for `O=C1c2ccc3c4c(ccc(c24)C(=O)N1CCCNCc1ccccc1)C(=O)N(CCCNCc1ccccc1)C3=O`, the GI50 in the assay on SF-539 CNS was 194 nM; with SNB-75 CNS it was 147 nM; with RXF 393 renal it was 135 nM; with BT-549 breast, 451 nM; in the assay with SR leukemia, 75.6 nM; with NCI-H226 lung, 694 nM. In addition, the GI50 with MOLT-4 leukemia is 85.8 nM; in the assay on MALME-3M melanoma, 152 nM; with 786-0 renal it was 251 nM; in the assay on SK-MEL-2 melanoma, 178 nM. Moreover, the TGI in the assay on SF-539 CNS amounted to 450 nM; with SNB-75 CNS, 291 nM; in the assay with RXF 393 renal, 270 nM; in the assay on BT-549 breast, 889 nM; with SR leukemia, 505 nM; with NCI-H226 lung it was 2250 nM. In addition, the TGI turned out to be 437 nM with MOLT-4 leukemia, 298 nM with MALME-3M melanoma, 837 nM with 786-0 renal and 363 nM with SK-MEL-2 melanoma.

In the case of `COc1cc2cn3c4ccc(O)cc4nc(N)c3c2cc1OC`, the GI50 is 200 nM with SF-539 CNS; 88.6 nM in the assay with SNB-75 CNS; 283 nM in the assay with RXF 393 renal; 1610 nM with BT-549 breast; 11.9 nM with SR leukemia; 201 nM in the assay with NCI-H226 lung. For the same molecule, the GI50 with MOLT-4 leukemia is 483 nM; in the assay with MALME-3M melanoma, 792 nM; with 786-0 renal, 675 nM; with SK-MEL-2 melanoma, 1890 nM. Besides, the TGI stood at 2390 nM in the assay with SF-539 CNS; 7490 nM with SNB-75 CNS; 2500 nM with RXF 393 renal; 8960 nM in the assay with BT-549 breast; 1390 nM in the assay with SR leukemia; 3540 nM in the assay on NCI-H226 lung. The TGI stood at 4330 nM with MOLT-4 leukemia, 16800 nM in the assay on MALME-3M melanoma, 3050 nM with 786-0 renal and 7610 nM with SK-MEL-2 melanoma.

In the case of `COc1ccc2[nH]c3c(C)c4cc[n+](C)cc4c(C)c3c2c1`, the TGI was 1650 nM and 1460 nM and 1320 nM in the assay on SF-539 CNS; 801 nM [middle of 4 runs] in the assay on SNB-75 CNS; 16.5 µM [middle of 4 runs] in the assay with RXF 393 renal; 5180 nM and 4970 nM and 1790 nM with BT-549 breast; 49100 nM and > 209000 nM in the assay with SR leukemia; 1520 nM and 1130 nM and 572 nM in the assay on NCI-H226 lung. The figures for the TGI with 786-0 renal and with SK-MEL-2 melanoma were 5490 nM and 13.8 µM [middle of 4 runs], respectively. For the same molecule, the GI50 is 158 nM and 324 nM in the assay with SNB-75 CNS; 1540 nM in the assay with RXF 393 renal; 733 nM with BT-549 breast; 111 nM in the assay with NCI-H226 lung; 653 nM [middle of 4 runs] with MOLT-4 leukemia; 624 nM and 2380 nM in the assay on MALME-3M melanoma. The GI50 is 267 nM and 161 nM and 898 nM in the assay on 786-0 renal; 4870 nM in the assay with SK-MEL-2 melanoma.

In the case of `COc1cc(-c2nc3ccccc3[nH]2)ccc1OCC(=O)N=Nc1c(O)[nH]c2ccc(Cl)cc12`, the GI50 in the assay on SF-539 CNS was 1690 nM; in the assay on SNB-75 CNS, 1190 nM; in the assay on RXF 393 renal, 1800 nM; in the assay with BT-549 breast, 1980 nM; in the assay on SR leukemia, 292 nM; with NCI-H226 lung, 1830 nM. Moreover, the GI50 is 827 nM with MOLT-4 leukemia, 1530 nM in the assay on MALME-3M melanoma, 1840 nM in the assay with 786-0 renal and 1760 nM in the assay on SK-MEL-2 melanoma. In addition, the TGI worked out at 3100 nM in the assay on SF-539 CNS; 2640 nM in the assay with SNB-75 CNS; 3480 nM in the assay with RXF 393 renal; 4030 nM in the assay with BT-549 breast; 1050 nM in the assay on SR leukemia; 3740 nM with NCI-H226 lung. The TGI was found to be 3120 nM with MOLT-4 leukemia, 2930 nM in the assay on MALME-3M melanoma, 3530 nM in the assay on 786-0 renal and 3340 nM with SK-MEL-2 melanoma.

Consider `C[C@@H]1[C@H]2[C@H](C=C3[C@@H]4CC[C@H]5Cc6nc7c(nc6C[C@]5(C)[C@H]4C[C@@H](O)[C@@]32C)C[C@@H]2CC[C@H]3C4=C[C@@H]5O[C@@]6(CC[C@](C)(CO)O6)[C@@H](C)[C@@]5(O)[C@@]4(C)[C@H](O)C[C@@H]3[C@@]2(C)C7)O[C@]12CCC(C)(C)O2`, for which the GI50 with SF-539 CNS was 114 nM; with SNB-75 CNS, 140 nM; in the assay with RXF 393 renal, 70.6 nM; in the assay on BT-549 breast, 338 nM; in the assay on SR leukemia it was 322 nM; in the assay with NCI-H226 lung, 3330 nM. The GI50 was 259 nM in the assay with MOLT-4 leukemia, 1580 nM in the assay on MALME-3M melanoma, 148 nM in the assay on 786-0 renal and 900 nM in the assay on SK-MEL-2 melanoma. For the same molecule, the TGI in the assay with SF-539 CNS turned out to be 4080 nM; in the assay with SNB-75 CNS, 9540 nM; in the assay with RXF 393 renal, 333 nM; with BT-549 breast it was 15000 nM; with SR leukemia it was 2900 nM; in the assay on NCI-H226 lung, 35600 nM. In addition, the TGI with MOLT-4 leukemia was found to be 857 nM; in the assay with MALME-3M melanoma, 22700 nM; in the assay with 786-0 renal, 752 nM; in the assay on SK-MEL-2 melanoma, 18000 nM.

As to `CN(C)CCN1C(=O)c2cccc3c(N)ccc(c23)C1=O`, the GI50 with SF-539 CNS was 9140 nM; in the assay on SNB-75 CNS, more than 25000 nM; with RXF 393 renal, 7910 nM; in the assay on BT-549 breast it was more than 25000 nM; in the assay with SR leukemia it was 4590 nM; in the assay on NCI-H226 lung, 7690 nM. For the same molecule, the GI50 in the assay with MOLT-4 leukemia is 6820 nM; with MALME-3M melanoma, 7740 nM; in the assay with 786-0 renal it was 14100 nM; with SK-MEL-2 melanoma it was 11600 nM. Besides, the TGI in the assay with SF-539 CNS is more than 25000 nM; in the assay with SNB-75 CNS it was more than 25000 nM; with RXF 393 renal it was 24800 nM; in the assay with BT-549 breast, more than 25000 nM; in the assay with SR leukemia it was 13300 nM; with NCI-H226 lung, more than 25000 nM. The TGI in the assay on MOLT-4 leukemia was 20200 nM; with MALME-3M melanoma, more than 25000 nM; in the assay with 786-0 renal it was more than 25000 nM; in the assay on SK-MEL-2 melanoma, more than 25000 nM.

With `Cc1c2cnccc2c(C)c2c1c1cc(C(=O)O)ccc1n2C`, the GI50 was 1010 nM with SF-539 CNS; 1100 nM in the assay on SNB-75 CNS; 666 nM in the assay on RXF 393 renal; 1470 nM in the assay on BT-549 breast; 435 nM with SR leukemia; 454 nM in the assay on NCI-H226 lung. For the same molecule, the GI50 was 530 nM in the assay on MOLT-4 leukemia, 942 nM in the assay with MALME-3M melanoma, 1230 nM with 786-0 renal and 1380 nM with SK-MEL-2 melanoma. Further, the TGI in the assay on SF-539 CNS was 3270 nM; in the assay with SNB-75 CNS it was 2530 nM; with RXF 393 renal, 2330 nM; in the assay with BT-549 breast, 4820 nM; with SR leukemia, 3980 nM; in the assay on NCI-H226 lung it was 2470 nM. Moreover, the TGI in the assay with MOLT-4 leukemia was 3380 nM; in the assay with MALME-3M melanoma, 2970 nM; in the assay with 786-0 renal, 11800 nM; in the assay with SK-MEL-2 melanoma, 4030 nM.
